Source: ChEMBL document CHEMBL5357036, “Latest developments in coumarin-based anticancer agents: mechanism of action and structure-activity relationship studies” (RSC Med Chem, 2024)
pIC50: −log10 of the molar value.

tested on: HT-29; test: Cytotoxicity against human HT-29 cells assessed as reduction in cell viability by MTT assay; assay type: functional, cell-based; conditions: not given

Row | Compound | pIC50
1 | Cc1c(Cl)c(=O)oc2cc(OCCn3cc(CO[C@H]4O[C@@H]5O[C@@]6(C)CC[C@H]7[C@H](C)CC[C@@H]([C@H]4C)[C@@]57OO6)nn3)ccc12 | 7.30
2 | Cc1c(C)c2ccc(OCCn3cc(CO[C@H]4O[C@@H]5O[C@@]6(C)CC[C@H]7[C@H](C)CC[C@@H]([C@H]4C)[C@@]57OO6)nn3)cc2oc1=O | 7.30
3 | CCOC(=O)c1cc2ccc(OCCn3cc(CO[C@H]4O[C@@H]5O[C@@]6(C)CC[C@H]7[C@H](C)CC[C@@H]([C@H]4C)[C@@]57OO6)nn3)cc2oc1=O | 7.30
4 | C[C@H]1[C@@H](OCc2cn(CCOc3ccc4c(C(F)(F)F)cc(=O)oc4c3)nn2)O[C@@H]2O[C@@]3(C)CC[C@H]4[C@H](C)CC[C@@H]1[C@@]24OO3 | 7.30
5 | CCOC(=O)c1cc2ccc(OCCCn3cc(CO[C@H]4O[C@@H]5O[C@@]6(C)CC[C@H]7[C@H](C)CC[C@@H]([C@H]4C)[C@@]57OO6)nn3)cc2oc1=O | 5.91
6 | Cc1c(Cl)c(=O)oc2cc(OCCCn3cc(CO[C@H]4O[C@@H]5O[C@@]6(C)CC[C@H]7[C@H](C)CC[C@@H]([C@H]4C)[C@@]57OO6)nn3)ccc12 | 5.91
7 | Cc1cc(=O)oc2cc(OCCn3cc(CO[C@H]4O[C@@H]5O[C@@]6(C)CC[C@H]7[C@H](C)CC[C@@H]([C@H]4C)[C@@]57OO6)nn3)ccc12 | 7.30
8 | Cc1cc(=O)oc2cc(OCCCn3cc(CO[C@H]4O[C@@H]5O[C@@]6(C)CC[C@H]7[C@H](C)CC[C@@H]([C@H]4C)[C@@]57OO6)nn3)ccc12 | 5.91
9 | Cc1c(C)c2ccc(OCCCn3cc(CO[C@H]4O[C@@H]5O[C@@]6(C)CC[C@H]7[C@H](C)CC[C@@H]([C@H]4C)[C@@]57OO6)nn3)cc2oc1=O | 5.91
10 | C[C@H]1[C@@H](OCc2cn(CCCOc3ccc4c(C(F)(F)F)cc(=O)oc4c3)nn2)O[C@@H]2O[C@@]3(C)CC[C@H]4[C@H](C)CC[C@@H]1[C@@]24OO3 | 5.91
11 | C[C@H]1[C@@H](OCCCc2cn(COc3ccc4c(C(F)(F)F)cc(=O)oc4c3)nn2)O[C@@H]2O[C@@]3(C)CC[C@H]4[C@H](C)CC[C@@H]1[C@@]24OO3 | < 4.00
12 | CCOC(=O)c1cc2ccc(OCn3cc(CCCO[C@H]4O[C@@H]5O[C@@]6(C)CC[C@H]7[C@H](C)CC[C@@H]([C@H]4C)[C@@]57OO6)nn3)cc2oc1=O | < 4.00
13 | Cc1c(Cl)c(=O)oc2cc(OCn3cc(CCCO[C@H]4O[C@@H]5O[C@@]6(C)CC[C@H]7[C@H](C)CC[C@@H]([C@H]4C)[C@@]57OO6)nn3)ccc12 | < 4.00
14 | Cc1cc(=O)oc2cc(OCn3cc(CCCO[C@H]4O[C@@H]5O[C@@]6(C)CC[C@H]7[C@H](C)CC[C@@H]([C@H]4C)[C@@]57OO6)nn3)ccc12 | < 4.00
15 | Cc1c(C)c2ccc(OCn3cc(CCO[C@H]4O[C@@H]5O[C@@]6(C)CC[C@H]7[C@H](C)CC[C@@H]([C@H]4C)[C@@]57OO6)nn3)cc2oc1=O | 5.61
16 | CCOC(=O)c1cc2ccc(OCn3cc(CCO[C@H]4O[C@@H]5O[C@@]6(C)CC[C@H]7[C@H](C)CC[C@@H]([C@H]4C)[C@@]57OO6)nn3)cc2oc1=O | 5.61
17 | Cc1cc(=O)oc2cc(OCn3cc(CCO[C@H]4O[C@@H]5O[C@@]6(C)CC[C@H]7[C@H](C)CC[C@@H]([C@H]4C)[C@@]57OO6)nn3)ccc12 | 5.61
18 | Cc1c(C)c2ccc(OCn3cc(CCCO[C@H]4O[C@@H]5O[C@@]6(C)CC[C@H]7[C@H](C)CC[C@@H]([C@H]4C)[C@@]57OO6)nn3)cc2oc1=O | < 4.00
19 | Cc1c(Cl)c(=O)oc2cc(OCn3cc(CCO[C@H]4O[C@@H]5O[C@@]6(C)CC[C@H]7[C@H](C)CC[C@@H]([C@H]4C)[C@@]57OO6)nn3)ccc12 | 5.61
20 | C[C@H]1[C@@H](OCCc2cn(COc3ccc4c(C(F)(F)F)cc(=O)oc4c3)nn2)O[C@@H]2O[C@@]3(C)CC[C@H]4[C@H](C)CC[C@@H]1[C@@]24OO3 | 5.61

tested on: HCT-116; test: Cytotoxicity against human HCT-116 cells assessed as reduction in cell viability incubated for 96 hrs by MTT assay; assay type: functional, cell-based; conditions: HCT-116, 96 h

Row | Compound | pIC50
21 | Cc1cccc2c(OCn3cc(CCO[C@H]4O[C@@H]5O[C@@]6(C)CC[C@H]7[C@H](C)CC[C@@H]([C@H]4C)[C@@]57OO6)nn3)cc(=O)oc12 | < 4.00
22 | Cc1ccc2oc(=O)cc(OCn3cc(CCCO[C@H]4O[C@@H]5O[C@@]6(C)CC[C@H]7[C@H](C)CC[C@@H]([C@H]4C)[C@@]57OO6)nn3)c2c1 | 7.41
23 | C[C@H]1[C@@H](OCCc2cn(COc3cc(=O)oc4ccccc34)nn2)O[C@@H]2O[C@@]3(C)CC[C@H]4[C@H](C)CC[C@@H]1[C@@]24OO3 | < 4.00
24 | Cc1cccc2c(OCn3cc(CCCO[C@H]4O[C@@H]5O[C@@]6(C)CC[C@H]7[C@H](C)CC[C@@H]([C@H]4C)[C@@]57OO6)nn3)cc(=O)oc12 | 7.41
25 | Cc1ccc2c(OCn3cc(CCCO[C@H]4O[C@@H]5O[C@@]6(C)CC[C@H]7[C@H](C)CC[C@@H]([C@H]4C)[C@@]57OO6)nn3)cc(=O)oc2c1C | 7.41
26 | Cc1ccc2c(OCn3cc(CCO[C@H]4O[C@@H]5O[C@@]6(C)CC[C@H]7[C@H](C)CC[C@@H]([C@H]4C)[C@@]57OO6)nn3)cc(=O)oc2c1C | < 4.00
27 | C[C@H]1[C@@H](OCCCc2cn(COc3cc(=O)oc4ccccc34)nn2)O[C@@H]2O[C@@]3(C)CC[C@H]4[C@H](C)CC[C@@H]1[C@@]24OO3 | 7.41
28 | Cc1cc(C)c2c(OCn3cc(CCO[C@H]4O[C@@H]5O[C@@]6(C)CC[C@H]7[C@H](C)CC[C@@H]([C@H]4C)[C@@]57OO6)nn3)cc(=O)oc2c1 | < 4.00
29 | Cc1cc(C)c2oc(=O)cc(OCn3cc(CCCO[C@H]4O[C@@H]5O[C@@]6(C)CC[C@H]7[C@H](C)CC[C@@H]([C@H]4C)[C@@]57OO6)nn3)c2c1 | 7.41
30 | Cc1cc(C)c2oc(=O)cc(OCn3cc(CCO[C@H]4O[C@@H]5O[C@@]6(C)CC[C@H]7[C@H](C)CC[C@@H]([C@H]4C)[C@@]57OO6)nn3)c2c1 | < 4.00
31 | Cc1cc(C)c2c(OCn3cc(CCCO[C@H]4O[C@@H]5O[C@@]6(C)CC[C@H]7[C@H](C)CC[C@@H]([C@H]4C)[C@@]57OO6)nn3)cc(=O)oc2c1 | 7.41
32 | Cc1ccc2c(OCn3cc(CCCO[C@H]4O[C@@H]5O[C@@]6(C)CC[C@H]7[C@H](C)CC[C@@H]([C@H]4C)[C@@]57OO6)nn3)cc(=O)oc2c1 | 7.41

tested on: MDA-MB-231; test: Antiproliferative activity against human MDA-MB-231 cells assessed as cell growth inhibition incubated for 96 hrs by MTT assay; assay type: functional, cell-based; conditions: MDA-MB-231, 96 h

Row | Compound | pIC50
33 | Cc1ccc2oc(=O)cc(OCn3cc(CCCO[C@H]4O[C@@H]5O[C@@]6(C)CC[C@H]7[C@H](C)CC[C@@H]([C@H]4C)[C@@]57OO6)nn3)c2c1 | 7.41
34 | Cc1cccc2c(OCn3cc(CCCO[C@H]4O[C@@H]5O[C@@]6(C)CC[C@H]7[C@H](C)CC[C@@H]([C@H]4C)[C@@]57OO6)nn3)cc(=O)oc12 | 7.41
35 | Cc1ccc2c(OCn3cc(CCCO[C@H]4O[C@@H]5O[C@@]6(C)CC[C@H]7[C@H](C)CC[C@@H]([C@H]4C)[C@@]57OO6)nn3)cc(=O)oc2c1C | 7.41
36 | C[C@H]1[C@@H](OCCCc2cn(COc3cc(=O)oc4ccccc34)nn2)O[C@@H]2O[C@@]3(C)CC[C@H]4[C@H](C)CC[C@@H]1[C@@]24OO3 | 7.41
37 | Cc1cc(C)c2oc(=O)cc(OCn3cc(CCCO[C@H]4O[C@@H]5O[C@@]6(C)CC[C@H]7[C@H](C)CC[C@@H]([C@H]4C)[C@@]57OO6)nn3)c2c1 | 7.41
38 | Cc1cc(C)c2c(OCn3cc(CCCO[C@H]4O[C@@H]5O[C@@]6(C)CC[C@H]7[C@H](C)CC[C@@H]([C@H]4C)[C@@]57OO6)nn3)cc(=O)oc2c1 | 7.41
39 | Cc1ccc2c(OCn3cc(CCCO[C@H]4O[C@@H]5O[C@@]6(C)CC[C@H]7[C@H](C)CC[C@@H]([C@H]4C)[C@@]57OO6)nn3)cc(=O)oc2c1 | 7.41

tested on: MDA-MB-231; test: Cytotoxicity against human MDA-MB-231 cells assessed as cell growth inhibition measured after 48 hrs by SRB assay; assay type: functional, cell-based; conditions: MDA-MB-231, 48 h

Row | Compound | pIC50
40 | Cc1ccc2c(Cn3cc(CO[C@H]4O[C@@H]5O[C@@]6(C)CC[C@H]7[C@H](C)CC[C@@H]([C@H]4C)[C@@]57OO6)nn3)cc(=O)oc2c1 | < 4.00
41 | Cc1cc(C)c2c(Cn3cc(CO[C@H]4O[C@@H]5O[C@@]6(C)CC[C@H]7[C@H](C)CC[C@@H]([C@H]4C)[C@@]57OO6)nn3)cc(=O)oc2c1 | < 4.00
42 | C[C@H]1[C@@H](OCc2cn(Cc3cc(=O)oc4cc(O)ccc34)nn2)O[C@@H]2O[C@@]3(C)CC[C@H]4[C@H](C)CC[C@@H]1[C@@]24OO3 | < 4.00
43 | Cc1ccc2oc(=O)cc(Cn3cc(CO[C@H]4O[C@@H]5O[C@@]6(C)CC[C@H]7[C@H](C)CC[C@@H]([C@H]4C)[C@@]57OO6)nn3)c2c1 | < 4.00
44 | C[C@H]1[C@@H](OCCc2cn(Cc3cc(=O)oc4cc(O)ccc34)nn2)O[C@@H]2O[C@@]3(C)CC[C@H]4[C@H](C)CC[C@@H]1[C@@]24OO3 | < 4.00
45 | Cc1ccc2c(Cn3cc(CCO[C@H]4O[C@@H]5O[C@@]6(C)CC[C@H]7[C@H](C)CC[C@@H]([C@H]4C)[C@@]57OO6)nn3)cc(=O)oc2c1 | < 4.00
46 | Cc1ccc2oc(=O)cc(Cn3cc(CCO[C@H]4O[C@@H]5O[C@@]6(C)CC[C@H]7[C@H](C)CC[C@@H]([C@H]4C)[C@@]57OO6)nn3)c2c1 | < 4.00
47 | Cc1cc(C)c2c(Cn3cc(CCO[C@H]4O[C@@H]5O[C@@]6(C)CC[C@H]7[C@H](C)CC[C@@H]([C@H]4C)[C@@]57OO6)nn3)cc(=O)oc2c1 | < 4.00

tested on: HT-29; test: Cytotoxicity against human HT-29 cells assessed as reduction in cell viability incubated for 48 hrs by SRB assay; assay type: functional, cell-based; conditions: HT-29, 48 h

Row | Compound | pIC50
48 | Cc1cc(=O)oc2cc(Nc3nc(-c4ccc(Br)cc4)cs3)ccc12 | 6.60

tested on: HCT-116; test: Cytotoxicity against human HCT-116 cells assessed as reduction in cell viability incubated for 48 hrs by SRB assay; assay type: functional, cell-based; conditions: HCT-116, 48 h

Row | Compound | pIC50
49 | Cc1cc(=O)oc2cc(Nc3nc(-c4ccc(Br)cc4)cs3)ccc12 | 6.60

tested on: MCF7; test: cells; conditions: Homo sapiens, MCF7, 48 h
Description: Anticancer activity against human MCF7 cells assessed as inhibition of cell growth incubated for 48 hrs by SRB assay

Row | Compound | pIC50
50 | Cc1ccc(/N=N/c2sc(N3N=C(c4c(O)c5ccccc5oc4=O)CC3c3ccc(N(C)C)cc3)nc2-c2ccccc2)cc1 (centres undefined) | 5.27
51 | CN(C)c1ccc(C2CC(c3cc4ccccc4oc3=O)=NN2c2nc(-c3ccccc3)c(/N=N/c3ccc(Cl)cc3)s2)cc1 (centres undefined) | 5.27
52 | CN(C)c1ccc(C2CC(c3c(O)c4ccccc4oc3=O)=NN2c2nc(-c3ccccc3)c(/N=N/c3ccc(Cl)cc3)s2)cc1 (centres undefined) | 5.27
53 | CC1SC(N2N=C(c3cc4ccccc4oc3=O)CC2c2ccc(N(C)C)cc2)=NC1=O (centres undefined) | 5.27
54 | Cc1nc(N2N=C(c3cc4ccccc4oc3=O)CC2c2ccc(N(C)C)cc2)sc1/N=N/c1ccc(Cl)cc1 (centres undefined) | 5.27
